# According to patent publication US20250073226A1, “USE OF OPIOID FOR TREATMENT OF AUTISM SPECTRUM DISORDERS” (priority 2021, published 2025):
# Experiments:
# mice = conditions: Non-patent Document 28, cited from earlier work
# [1] = Estimation of buprenorphine maximum plasma concentration in humans by proportional calculation; conditions: human, other: transdermal, 10 ug/kg
# Procedure: As described above, preferred maximum plasma concentrations in ASD applications in mice are in the range of 26.6 pg/mL (at the time of administration of 0.3 pg/kg) to 2360 μg/mL (at the time of administration of 30p/kg) (preferably more than about 26.6 pg/mL and less than about 2360 μg/mL).
# Fmr1 knockout mice = experiment: 3 chamber test in Fmr1 knockout mice; type: in vivo; conditions: single subcutaneous administration, low dose of less than 1/10 of 1 mg/kg
# Description: It is known that patients with human fragile X syndrome (FXS), which is caused by abnormalities of the X chromosome, present with social impairment symptoms, such as those often seen in ASD (Non-patent Documents 7 to 9). The Fmr1 knockout mouse (Cell, 1994, 15; 78 (1): 23-33) is a model mouse that mimics human fragile X syndrome (FXS), and is also widely used as a model of ASD. Buprenorphine hydrochloride, a MOR partial agonist used as an analgesic, and physiological saline of a solvent were administered once, and the action on social dysfunction of Fmr1 knockout mice was examined. The dose was calculated as a free form for buprenorphine. As a social function evaluation, a 3 chamber test (Nature Medicine, 2017, 23; p674-677) was used. In the 3chamber test, two types of mice (Unfamiliar and Familiar) are placed in cups at both left and right ends of three compartments, and a ratio of time to search for a mouse with high novelty to a mouse with low novelty is calculated and quantified as social function (preference to a mouse with high novelty).
# [2] = test system: valproic acid model mice (VPA model); experiment: Social interaction test in valproic acid model mice; type: in vivo, ICR mice; conditions: single s.c. dose
# Description: Since ASD-like symptoms such as social impairment and cognitive dysfunction are observed, it is one of the most widely used the ASD model mice.
# As the sociality evaluation, a method called a social interaction test was used. In the Social Interaction Test, two mice are placed in one cage, and how many seconds a target mouse (Test mouse) performs sniffing, which is social behavior, on another mouse (Intruder mouse) is quantified.
# medial prefrontal cortex = experiment: Brain activation: c-Fos positive cells in medial prefrontal cortex; type: in vivo, mice; conditions: VPA model, 1 hour after administration
# Procedure: (§1) Saline or buprenorphine at 0.0003, 0.003, or 0.03 mg/kg was administered to the VPA model, and 1 hour after that, the brain was extracted and immunostained with an anti-c-Fos antibody, and the number of c-Fos positive cells in nucleus accumens (NAc) and medial prefrontal cortex, which are brain regions known to promote social behavior, and dorsomedial periaqueductal gray (dmPAG), which is a brain region known to reduce social behavior and to be involved in the expression of analgesic effects, was quantified as the number of activated nerve cells.
# VPA model [3] = experiment: Confirmation of continuous effect: social behavior in VPA model 3 or 12 hours after administration; type: in vivo, mice; conditions: 0.003 mg/kg s.c.
# Procedure: Saline or buprenorphine was subcutaneously administered to the VPA model in the same manner as in Example 1, and the amount of social behavior for 20 minutes from 3 hour after administration or for 20 minutes from 12 hours after administration was quantified. The improvement effect in social impairment by administration of 0.003 mg/kg of buprenorphine was observed even 3 hours and 12 hours after administration.
# VPA model [4] = experiment: Antagonist test with naloxone in VPA model; type: in vivo, mice; conditions: naloxone hydrochloride 1 mg/kg s.c. 15 minutes before buprenorphine 0.003 mg/kg s.c.
# Procedure: In the same manner as in Example 1, to the VPA model, Saline or a MOR selective antagonist, naloxone hydrochloride was subcutaneously administered so as to be 1 mg/kg as a hydrochloride, and 15 minutes after that, 0.003 mg/kg of buprenorphine was subcutaneously administered, and the amount of social behavior for 1 hour from 20 minutes after administration of buprenorphine was quantified.
# [5] = test system: dorsomedial periaqueductal gray (dmPAG); experiment: Brain activation: c-Fos positive cells in dorsomedial periaqueductal gray; type: in vivo, mice; conditions: VPA model, 1 hour after administration
# Procedure: as §1
# nucleus accumbens (NAc) = experiment: Brain activation: c-Fos positive cells in nucleus accumbens; type: in vivo, mice; conditions: VPA model, 1 hour after administration
# Procedure: as §1
compound,measurement,setting,value
"CO[C@]12CC[C@@]3(C[C@@H]1[C@](C)(O)C(C)(C)C)[C@H]1Cc4ccc(O)c5c4[C@@]3(CCN1CC1CC1)[C@H]2O5 [buprenorphine, 21-cyclopropyl-7-a-[(S)-1-hydroxy-1,2,2-trimethylpropyl]-6,14-endo-ethano-6,7,8,14 tetrahydrooripavine]",dose at which the analgesic effect was maximum,mice,1 mg/kg
same,minimum dose at which the analgesic effect is observed,mice; subcutaneous administration,0.01 mg/kg
same,Cmax,[1],0.084 to 0.176 ng/mL
same,improvement effect in social impairment (3 chamber test),Fmr1 knockout mice,significant improvement effect in social impairment
same,improvement effect in social impairment at a high dose,[2]; high dose close to the analgesic dose,reduced the improvement effect in social impairment
same,improvement effect in social impairment,"[2]; low dose of less than 1/10 of the dose of maximum analgesic effect, 20 minutes from 1 hour after administration",significant improvement effect in social impairment
same,number of activated nerve cells (c-Fos positive cells),medial prefrontal cortex; 0.003 mg/kg,significantly increased
same,number of activated nerve cells (c-Fos positive cells),medial prefrontal cortex; 0.03 mg/kg,significantly increased
same,improvement effect in social impairment 3 hours after administration,VPA model [3]; 20 minutes from 3 hour after administration,observed
same,improvement effect in social impairment 12 hours after administration,VPA model [3]; 20 minutes from 12 hours after administration,observed
same,improvement effect in social impairment with combined use of naloxone,VPA model [4],antagonized by combined use of naloxone
same,number of activated nerve cells (c-Fos positive cells),[5]; 0.003 mg/kg,no change
same,number of activated nerve cells (c-Fos positive cells),[5]; 0.03 mg/kg,significantly increased
same,number of activated nerve cells (c-Fos positive cells),nucleus accumbens (NAc); 0.003 mg/kg,significantly increased
same,number of activated nerve cells (c-Fos positive cells),nucleus accumbens (NAc); 0.03 mg/kg,significantly increased
